# Test results reported in patent US10941158B2, “Pyrazole ACC inhibitors and uses thereof” (Gilead Apollo, LLC, priority 2015, dated 2021).
# Like-named read-outs stand apart in the source and are kept apart here.
# Tests used:
# C. albicans ATCC 90028 = assay: Anti-Fungal (Candida) Activity Assay, broth microtiter MIC; format: cell-based; details: read-out: MIC C. albicans ATCC 90028
# Outline: (§1)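 Following CLSI M27-A3 broth microdilution, direct colony suspensions in RPMI 1640+MOPS were challenged with compounds. MICs were read visually against the growth control after 48 h.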
# [1] = tested on: C. parapsilosis ATCC 22019; assay: as above; format: cell-based; details: Lodderomyces parapsilosis, read-out: MIC C. parapsilosis ATCC 22019
# Outline: as §1
# C. krusei ATCC 6258 = assay: as above; format: cell-based; details: Pichia kudriavzevii, read-out: MIC C. krusei ATCC 6258
# Outline: as §1
# Botrtyis cinerea (Bc) = assay: Growth inhibition assay of fungal pathogens; format: cell-based; details: 48 h, read-out: Concentration at 90% Inhibition Bc
# Outline: (§2)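 Compounds in DMSO tested at final 50, 10, 2 ppm or 2, 0.4, 0.08 ppm. Spores in 17% V8 medium, or 1.5 mm mycelial plugs in ¼ PDB for R. solani, incubated with compound. OD600 and visual ratings at 48 h versus 2% DMSO control gave percent growth inhibition.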
# Rhizoctonia solani (Rs) = assay: Growth inhibition assay of fungal pathogens; format: cell-based; details: 48 h, read-out: Concentration at 90% Inhibition Rs
# Outline: as §2
# [2] = tested on: Fusarium moniliforme (Fm); assay: Growth inhibition assay of fungal pathogens; format: cell-based; details: for IC90: Fusarium verticillioides, 48 h, read-out: Concentration at 90% Inhibition Fm
# Outline: as §2
# [3] = tested on: Fusarium virguliforme (Fv); assay: Growth inhibition assay of fungal pathogens; format: cell-based; details: 48 h
# Outline: as §2
# Septoria tritici (St) = assay: Growth inhibition assay of fungal pathogens; format: cell-based; details: for IC90: Zymoseptoria tritici, read-out: Concentration at 90% Inhibition St
# Outline: as §2
# [4] = tested on: Phytophthora capsici (Pc); assay: Growth inhibition assay of fungal pathogens; format: cell-based; details: for IC90: Phytophthora capsici, read-out: Concentration at 90% Inhibition Pc
# Outline: as §2
# [5] = tested on: Collectotrichum graminicola (Cg); assay: Growth inhibition assay of fungal pathogens; format: cell-based; details: 48 h, read-out: Concentration at 90% Inhibition Cg
# Outline: as §2
# Diplodia maydis (Dm) = assay: Growth inhibition assay of fungal pathogens; format: cell-based; details: Stenocarpella maydis, 48 h, read-out: Concentration at 90% Inhibition Dm
# Outline: as §2
# human (hACC2) ACC2 = human (hACC2) ACC2 (Homo sapiens, UniProt O00763); assay: In vitro Acetyl-CoA Carboxylase (ACC) inhibition assay (ADP-Glo), hACC2; format: biochemical
# Experimental: The detailed procedure is as follows. […] 10 μL ADP glo reagent was added. […] 20 μL kinase detection reagent was added.
# “NA” stands for “not assayed.”
# fungal (fACC2) ACC2 = fungal (fACC2) ACC2 (UniProt Q00955); details: read-out: fACC2 IC50; fungal ACC2, ADP-Glo
# [6] = ATCC90028, 3 replicates, MIC recorded at 48 h
# [7] = ATCC22019, 3 replicates, MIC recorded at 48 h
# [8] = ATCC6258, 3 replicates, MIC recorded at 48 h
# [9] = Table 4a, 48 hours, read-out: Concentration at 90% Inhibition Fv
# [10] = Table 4b, 48 hours, read-out: Concentration at 90% Inhibition Fv
# [11] = read-out: Concentration at 90% Inhibition Fv, Table 4b, 48 hours
# human (hACC2) ACC2, sequence (O00763 whole entry): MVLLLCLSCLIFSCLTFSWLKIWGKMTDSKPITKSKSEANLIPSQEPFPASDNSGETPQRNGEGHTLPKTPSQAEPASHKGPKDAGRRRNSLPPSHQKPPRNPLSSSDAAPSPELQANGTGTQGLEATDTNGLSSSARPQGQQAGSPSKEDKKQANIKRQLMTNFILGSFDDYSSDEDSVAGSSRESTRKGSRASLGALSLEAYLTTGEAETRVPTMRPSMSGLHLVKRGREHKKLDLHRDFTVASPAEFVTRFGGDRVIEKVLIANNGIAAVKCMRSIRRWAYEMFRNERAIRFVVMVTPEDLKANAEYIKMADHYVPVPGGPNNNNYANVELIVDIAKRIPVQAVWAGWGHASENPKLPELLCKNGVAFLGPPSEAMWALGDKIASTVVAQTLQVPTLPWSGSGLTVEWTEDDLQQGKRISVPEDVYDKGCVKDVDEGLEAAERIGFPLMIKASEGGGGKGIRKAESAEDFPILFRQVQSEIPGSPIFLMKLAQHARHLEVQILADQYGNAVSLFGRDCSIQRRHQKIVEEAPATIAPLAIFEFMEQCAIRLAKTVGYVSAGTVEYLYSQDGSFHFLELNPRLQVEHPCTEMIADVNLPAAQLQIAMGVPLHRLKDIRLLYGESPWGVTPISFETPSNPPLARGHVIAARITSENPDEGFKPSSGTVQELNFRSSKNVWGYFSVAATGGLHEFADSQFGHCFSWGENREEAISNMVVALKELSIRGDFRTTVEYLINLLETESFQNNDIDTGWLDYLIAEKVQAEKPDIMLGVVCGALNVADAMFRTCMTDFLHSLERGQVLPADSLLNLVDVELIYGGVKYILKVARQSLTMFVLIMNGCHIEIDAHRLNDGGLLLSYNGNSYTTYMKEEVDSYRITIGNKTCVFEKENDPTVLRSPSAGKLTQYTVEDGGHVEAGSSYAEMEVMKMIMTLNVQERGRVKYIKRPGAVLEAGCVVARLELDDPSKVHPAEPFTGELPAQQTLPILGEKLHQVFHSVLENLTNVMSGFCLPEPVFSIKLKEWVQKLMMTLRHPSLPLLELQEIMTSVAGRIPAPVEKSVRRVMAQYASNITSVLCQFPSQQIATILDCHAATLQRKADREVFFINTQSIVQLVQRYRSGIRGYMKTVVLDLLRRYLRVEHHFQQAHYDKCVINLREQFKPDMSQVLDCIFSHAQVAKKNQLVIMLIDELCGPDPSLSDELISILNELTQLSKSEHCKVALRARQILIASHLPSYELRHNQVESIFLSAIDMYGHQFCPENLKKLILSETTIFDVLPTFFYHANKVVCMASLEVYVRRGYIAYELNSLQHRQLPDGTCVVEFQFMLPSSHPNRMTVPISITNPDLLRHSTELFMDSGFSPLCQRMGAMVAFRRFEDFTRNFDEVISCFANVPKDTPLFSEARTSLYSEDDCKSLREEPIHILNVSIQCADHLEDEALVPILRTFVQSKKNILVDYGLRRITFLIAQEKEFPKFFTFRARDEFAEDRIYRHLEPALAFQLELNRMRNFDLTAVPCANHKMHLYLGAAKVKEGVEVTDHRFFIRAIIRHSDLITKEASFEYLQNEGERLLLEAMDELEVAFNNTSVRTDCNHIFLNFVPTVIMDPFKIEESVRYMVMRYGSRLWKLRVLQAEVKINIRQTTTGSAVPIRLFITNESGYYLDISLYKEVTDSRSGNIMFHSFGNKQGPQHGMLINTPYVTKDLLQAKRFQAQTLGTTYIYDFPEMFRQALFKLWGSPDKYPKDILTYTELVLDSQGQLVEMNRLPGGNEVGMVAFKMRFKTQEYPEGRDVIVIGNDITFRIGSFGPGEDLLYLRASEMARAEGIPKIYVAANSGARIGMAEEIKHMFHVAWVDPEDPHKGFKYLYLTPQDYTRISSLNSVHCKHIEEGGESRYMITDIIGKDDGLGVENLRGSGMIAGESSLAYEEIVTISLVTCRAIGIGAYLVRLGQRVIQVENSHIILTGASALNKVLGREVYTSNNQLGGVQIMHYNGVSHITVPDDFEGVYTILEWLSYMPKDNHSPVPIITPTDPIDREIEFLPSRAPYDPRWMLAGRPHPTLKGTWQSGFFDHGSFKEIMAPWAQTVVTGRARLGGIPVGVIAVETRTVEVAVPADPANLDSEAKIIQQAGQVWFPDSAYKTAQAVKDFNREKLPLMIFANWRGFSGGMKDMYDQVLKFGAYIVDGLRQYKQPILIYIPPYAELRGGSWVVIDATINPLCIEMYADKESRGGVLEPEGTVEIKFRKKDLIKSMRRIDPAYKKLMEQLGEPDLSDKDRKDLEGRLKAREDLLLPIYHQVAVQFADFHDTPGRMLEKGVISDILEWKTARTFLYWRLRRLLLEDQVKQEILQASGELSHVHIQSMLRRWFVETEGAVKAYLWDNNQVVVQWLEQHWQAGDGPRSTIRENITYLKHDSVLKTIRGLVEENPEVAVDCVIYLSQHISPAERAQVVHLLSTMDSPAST
# fungal (fACC2) ACC2, sequence (Q00955 whole entry): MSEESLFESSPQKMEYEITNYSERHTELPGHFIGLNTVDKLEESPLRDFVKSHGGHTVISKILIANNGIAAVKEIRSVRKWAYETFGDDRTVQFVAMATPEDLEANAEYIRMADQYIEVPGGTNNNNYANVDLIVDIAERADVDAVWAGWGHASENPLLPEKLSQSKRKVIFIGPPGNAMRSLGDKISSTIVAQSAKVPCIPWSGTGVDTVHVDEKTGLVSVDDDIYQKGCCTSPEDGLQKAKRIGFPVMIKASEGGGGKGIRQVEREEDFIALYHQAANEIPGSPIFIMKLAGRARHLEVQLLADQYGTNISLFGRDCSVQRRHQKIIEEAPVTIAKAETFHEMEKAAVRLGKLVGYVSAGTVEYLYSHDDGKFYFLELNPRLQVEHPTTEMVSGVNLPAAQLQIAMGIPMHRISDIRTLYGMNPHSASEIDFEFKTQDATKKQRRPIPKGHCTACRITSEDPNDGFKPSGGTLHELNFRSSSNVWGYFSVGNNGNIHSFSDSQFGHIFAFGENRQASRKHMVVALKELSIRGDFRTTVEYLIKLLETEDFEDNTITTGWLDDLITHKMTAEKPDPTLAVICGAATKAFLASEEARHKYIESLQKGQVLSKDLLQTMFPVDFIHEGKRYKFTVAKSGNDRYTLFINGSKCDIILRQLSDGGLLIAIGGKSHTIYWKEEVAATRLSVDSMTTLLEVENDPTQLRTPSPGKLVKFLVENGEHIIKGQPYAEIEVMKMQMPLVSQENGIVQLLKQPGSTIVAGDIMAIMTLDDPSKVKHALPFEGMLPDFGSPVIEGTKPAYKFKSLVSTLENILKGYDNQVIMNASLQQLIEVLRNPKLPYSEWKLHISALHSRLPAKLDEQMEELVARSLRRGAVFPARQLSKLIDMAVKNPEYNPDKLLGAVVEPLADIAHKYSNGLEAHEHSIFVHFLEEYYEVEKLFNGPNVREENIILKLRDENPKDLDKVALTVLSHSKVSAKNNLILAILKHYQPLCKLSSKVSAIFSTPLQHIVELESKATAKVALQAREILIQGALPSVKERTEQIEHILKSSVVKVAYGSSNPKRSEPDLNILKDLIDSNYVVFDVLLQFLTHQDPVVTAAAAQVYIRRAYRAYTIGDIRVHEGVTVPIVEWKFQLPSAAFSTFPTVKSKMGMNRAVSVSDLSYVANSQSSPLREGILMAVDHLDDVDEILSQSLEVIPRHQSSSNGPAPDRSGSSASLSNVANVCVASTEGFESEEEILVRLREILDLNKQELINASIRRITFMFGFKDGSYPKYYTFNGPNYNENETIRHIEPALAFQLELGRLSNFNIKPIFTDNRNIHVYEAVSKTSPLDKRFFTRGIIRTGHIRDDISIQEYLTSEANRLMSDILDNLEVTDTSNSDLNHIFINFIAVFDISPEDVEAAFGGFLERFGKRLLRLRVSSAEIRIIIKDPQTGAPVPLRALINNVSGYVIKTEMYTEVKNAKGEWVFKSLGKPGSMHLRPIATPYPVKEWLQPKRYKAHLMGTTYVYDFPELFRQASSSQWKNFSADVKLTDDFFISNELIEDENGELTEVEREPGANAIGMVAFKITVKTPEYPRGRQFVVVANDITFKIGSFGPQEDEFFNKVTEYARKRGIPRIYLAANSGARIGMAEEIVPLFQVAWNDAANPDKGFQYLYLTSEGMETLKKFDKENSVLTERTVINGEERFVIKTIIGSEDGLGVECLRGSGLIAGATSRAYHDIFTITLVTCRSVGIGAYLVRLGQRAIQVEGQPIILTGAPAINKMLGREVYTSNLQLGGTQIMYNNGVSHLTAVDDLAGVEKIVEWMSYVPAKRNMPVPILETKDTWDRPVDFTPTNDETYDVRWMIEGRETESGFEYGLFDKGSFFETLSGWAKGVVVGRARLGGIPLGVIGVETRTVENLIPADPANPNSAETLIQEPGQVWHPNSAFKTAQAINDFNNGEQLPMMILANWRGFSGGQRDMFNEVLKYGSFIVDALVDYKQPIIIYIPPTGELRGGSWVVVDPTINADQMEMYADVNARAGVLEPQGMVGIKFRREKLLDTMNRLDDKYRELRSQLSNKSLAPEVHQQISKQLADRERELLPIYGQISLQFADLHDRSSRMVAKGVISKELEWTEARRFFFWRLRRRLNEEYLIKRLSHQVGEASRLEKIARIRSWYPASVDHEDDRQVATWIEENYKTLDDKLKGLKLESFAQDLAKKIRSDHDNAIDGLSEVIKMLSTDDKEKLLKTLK
MIC (C. albicans ATCC 90028; [6]),"MIC [1, 7]",MIC (C. krusei ATCC 6258; [8]),Structure (SMILES),IC90 (Botrtyis cinerea (Bc); Table 4a),IC90 (Botrtyis cinerea (Bc); Table 4b),IC90 (Rhizoctonia solani (Rs); Table 4a),IC90 (Rhizoctonia solani (Rs); Table 4b),"IC90 ([2]; Table 4a, 48 hours)","IC90 ([2]; Table 4b, 48 hours)","IC90 [3, 9]","IC90 [3, 10]","Concentration at 90% Inhibition St (Septoria tritici (St); Table 4b, 48 hours)","IC90 (Septoria tritici (St); Table 4a, 48 hours)","IC90 ([4]; Table 4a, 48 hours)","Concentration at 90% Inhibition Pc ([4]; Table 4b, 48 hours)",IC90 ([5]; Table 4a),IC90 ([5]; Table 4b),IC90 (Diplodia maydis (Dm); Table 4a),IC90 (Diplodia maydis (Dm); Table 4b),IC50 (human (hACC2) ACC2),further results
–,–,–,"COc1ccccc1[C@H](Cn1c(=O)n(C(C)(C)C(=O)N2CCCCC2)c(=O)c2c(C)c(-n3cccn3)sc21)OCC(C)C [Compound I-23, (R)-1-(2-isobutoxy-2-(2-methoxyphenyl)ethyl)-5-methyl-3-(2-methyl-1-oxo-1-(piperidin-1-yl)propan-2-yl)-6-(1H-pyrazol-1-yl)thieno[2,3-d]pyrimidine-2,4(1H,3H)-dione]",2 µg/mL,2 µg/mL,> 50 µg/mL,> 50 µg/mL,–,–,–,–,–,–,–,–,> 50 µg/mL,10 µg/mL,10 µg/mL,2 µg/mL,10 to 40 nM,"MIC (C. albicans ATCC 90028; ATCC90028, 48 h): 0.25 to 1 µg/mL; MIC ([1]; ATCC22019, 48 h): 1.1 to 2 µg/mL; MIC (C. krusei ATCC 6258; ATCC6258, 48 h): 0.25 to 1 µg/mL; IC90 [2]: 0.4 µg/mL; Concentration at 90% Inhibition Fm ([2]; Table 4b, 48 hours): A (“A” provided a compound concentration of 0.4 ppm at 90% inhibition of fungal pathogens); IC90 ([3]; read-out: Concentration at 90% Inhibition Fv, Table 4a, 48 hours): > 50 µg/mL; IC90 [3, 11]: > 50 µg/mL; IC90 (Septoria tritici (St); 48 h, Table 4a): > 50 µg/mL; IC90 (Septoria tritici (St); 48 h, Table 4b): > 50 µg/mL; IC90 ([4]; 48 h, Table 4a): > 50 µg/mL; IC90 ([4]; 48 h, Table 4b): > 50 µg/mL"
1.1 to 2 µg/mL,1.1 to 2 µg/mL,0.25 to 1 µg/mL,"COc1ccc(F)cc1[C@H](Cn1c(=O)n(C(C)(C)C(N)=O)c(=O)c2c(C)c(-n3cccn3)sc21)OC1CCC(=O)CC1 [Compound I-25, (R)-2-(1-(2-(5-fluoro-2-methoxyphenyl)-2-((4-oxocyclo-hexyl)oxy)ethyl)-5-methyl-2,4-dioxo-6-(1H-pyrazol-1-yl)-1,4-dihydro-thieno[2,3-d]pyrimidin-3(2H)-yl)-2-methylpropanamide]",> 50 µg/mL,10 µg/mL,> 50 µg/mL,> 50 µg/mL,10 µg/mL,2 µg/mL,> 50 µg/mL,> 50 µg/mL,D (“D” provided a compound concentration of >50 ppm at 90% inhibition of fungal pathogens),> 50 µg/mL,> 50 µg/mL,D (“D” provided a compound concentration of >50 ppm at 90% inhibition of fungal pathogens),> 50 µg/mL,> 50 µg/mL,> 50 µg/mL,> 50 µg/mL,3 to 10 nM,–
1.1 to 2 µg/mL,1.1 to 2 µg/mL,1.1 to 2 µg/mL,"COc1ccc(F)cc1[C@H](Cn1c(=O)n(C(C)(C)C(=O)N2CCCC2)c(=O)c2c(C)c(-n3cccn3)sc21)OC1CCC(=O)CC1 [Compound I-27, (R)-1-(2-(5-fluoro-2-methoxyphenyl)-2-((4-oxocyclohexyl)oxy)ethyl)-5-methyl-3-(2-methyl-1-oxo-1-(pyrrolidin-1-yl)propan-2-yl)-6-(1H-pyrazol-1-yl)thieno[2,3-d]pyrimidine-2,4(1H,3H)-dione]",2 µg/mL,2 µg/mL,2 µg/mL,2 µg/mL,0.4 µg/mL,0.4 µg/mL,10 µg/mL,2 µg/mL,D (“D” provided a compound concentration of >50 ppm at 90% inhibition of fungal pathogens),> 50 µg/mL,> 50 µg/mL,D (“D” provided a compound concentration of >50 ppm at 90% inhibition of fungal pathogens),10 µg/mL,2 µg/mL,> 50 µg/mL,10 µg/mL,10 to 40 nM,–
–,–,–,"COc1ccc(F)cc1[C@H](Cn1c(=O)n(C(C)(C)C(=O)NC(C)C)c(=O)c2c(C)c(-n3cccn3)sc21)OCCO [Compound I-35, (R)-2-(1-(2-(5-fluoro-2-methoxyphenyl)-2-(2-hydroxy-ethoxy)ethyl)-5-methyl-2,4-dioxo-6-(1H-pyrazol-1-yl)-1,4-dihydrothieno[2,3-d]pyrimidin-3(2H)-yl)-N-isopropyl-2-methylpropanamide]",2 µg/mL,2 µg/mL,2 µg/mL,2 µg/mL,0.4 µg/mL,0.4 µg/mL,2 µg/mL,2 µg/mL,D (“D” provided a compound concentration of >50 ppm at 90% inhibition of fungal pathogens),> 50 µg/mL,> 50 µg/mL,D (“D” provided a compound concentration of >50 ppm at 90% inhibition of fungal pathogens),2 µg/mL,2 µg/mL,> 50 µg/mL,10 µg/mL,10 to 40 nM,IC50 (fungal (fACC2) ACC2): 0.6 to 3 nM
–,–,–,"COCCO[C@@H](Cn1c(=O)n(C(C)(C)C(=O)N2CCCC2)c(=O)c2c(C)c(-n3cccn3)sc21)c1cc(F)ccc1OC [Compound I-44, (R)-1-(2-(5-fluoro-2-methoxyphenyl)-2-(2-methoxy-ethoxy)ethyl)-5-methyl-3-(2-methyl-1-oxo-1-(pyrrolidin-1-yl)propan-2-yl)-6-(1H-pyrazol-1-yl)thieno[2,3-d]pyrimidine-2,4(1H,3H)-dione]",–,> 50 µg/mL,–,> 50 µg/mL,–,10 µg/mL,–,10 µg/mL,–,–,–,–,–,> 50 µg/mL,–,> 50 µg/mL,> 40 nM,"IC90 (Septoria tritici (St); Table 4b, 48 hours): > 50 µg/mL; IC90 ([4]; Table 4b, 48 hours): > 50 µg/mL; IC50 (fungal (fACC2) ACC2): 3 to 10 nM"
–,–,–,"COc1ccc(F)cc1[C@@H](O)Cn1c(=O)n(C(C)(C)C(=O)NC(C)C)c(=O)c2c(C)c(-n3cccn3)sc21 [Compound I-86, (R)-2-(1-(2-(5-fluoro-2-methoxyphenyl)-2-hydroxyethyl)-5-methyl-2,4-dioxo-6-(1H-pyrazol-1-yl)-1,4-dihydrothieno[2,3-d]pyrimidin-3(2H)-yl)-N-isopropyl-2-methylpropanamide]",–,2 µg/mL,–,0.4 µg/mL,–,–,–,–,–,–,–,–,–,2 µg/mL,–,10 µg/mL,3 to 10 nM,"MIC (C. albicans ATCC 90028; ATCC90028, 48 h): 1.1 to 2 µg/mL; MIC ([1]; ATCC22019, 48 h): 0.25 to 1 µg/mL; MIC (C. krusei ATCC 6258; ATCC6258, 48 h): 1.1 to 2 µg/mL; IC90 [2]: 0.4 µg/mL; IC90 [3, 11]: 0.4 µg/mL; IC90 (Septoria tritici (St); 48 h, Table 4b): > 50 µg/mL; IC90 ([4]; 48 h, Table 4b): > 50 µg/mL"

Structure (SMILES),MIC (C. albicans ATCC 90028; [6]),"MIC [1, 7]",MIC (C. krusei ATCC 6258; [8]),IC90 (Botrtyis cinerea (Bc); Table 4a),IC90 (Botrtyis cinerea (Bc); Table 4b),IC90 (Rhizoctonia solani (Rs); Table 4a),IC90 (Rhizoctonia solani (Rs); Table 4b),"IC90 ([2]; Table 4a, 48 hours)","IC90 ([2]; Table 4b, 48 hours)","IC90 [3, 9]","IC90 [3, 10]","Concentration at 90% Inhibition St (Septoria tritici (St); Table 4b, 48 hours)","IC90 (Septoria tritici (St); Table 4a, 48 hours)","IC90 ([4]; Table 4a, 48 hours)","Concentration at 90% Inhibition Pc ([4]; Table 4b, 48 hours)",IC90 ([5]; Table 4a),IC90 ([5]; Table 4b),IC90 (Diplodia maydis (Dm); Table 4a),IC90 (Diplodia maydis (Dm); Table 4b),IC50 (human (hACC2) ACC2),further results
"COc1ccccc1[C@H](Cn1c(=O)n(C(C)(C)C(=O)N2CCCC2)c(=O)c2c(C)c(-n3cccn3)sc21)OCC(C)C [Compound I-22, (R)-1-(2-isobutoxy-2-(2-methoxyphenyl)ethyl)-5-methyl-3-(2-methyl-1-oxo-1-(pyrrolidin-1-yl)propan-2-yl)-6-(1H-pyrazol-1-yl)thieno[2,3-d]pyrimidine-2,4(1H,3H)-dione]",0.25 to 1 µg/mL,1.1 to 2 µg/mL,0.25 to 1 µg/mL,2 µg/mL,2 µg/mL,2 µg/mL,2 µg/mL,2 µg/mL,0.4 µg/mL,> 50 µg/mL,10 µg/mL,D (“D” provided a compound concentration of >50 ppm at 90% inhibition of fungal pathogens),> 50 µg/mL,> 50 µg/mL,D (“D” provided a compound concentration of >50 ppm at 90% inhibition of fungal pathogens),2 µg/mL,2 µg/mL,2 µg/mL,2 µg/mL,3 to 10 nM,–
